This note sets out measurements from patent US20260116920A1, “HUMAN TRANSFERRIN RECEPTOR BINDING PEPTIDE” (PEPTIDREAM INC., priority 2021, published 2026).

Molecules are shown by their SMILES.

The target of this experiment is T1, human transferrin receptor (hTfR) (Homo sapiens, UniProt P02786).
T1 construct: made in house
T1 sequence (P02786 89-760 limits assumed): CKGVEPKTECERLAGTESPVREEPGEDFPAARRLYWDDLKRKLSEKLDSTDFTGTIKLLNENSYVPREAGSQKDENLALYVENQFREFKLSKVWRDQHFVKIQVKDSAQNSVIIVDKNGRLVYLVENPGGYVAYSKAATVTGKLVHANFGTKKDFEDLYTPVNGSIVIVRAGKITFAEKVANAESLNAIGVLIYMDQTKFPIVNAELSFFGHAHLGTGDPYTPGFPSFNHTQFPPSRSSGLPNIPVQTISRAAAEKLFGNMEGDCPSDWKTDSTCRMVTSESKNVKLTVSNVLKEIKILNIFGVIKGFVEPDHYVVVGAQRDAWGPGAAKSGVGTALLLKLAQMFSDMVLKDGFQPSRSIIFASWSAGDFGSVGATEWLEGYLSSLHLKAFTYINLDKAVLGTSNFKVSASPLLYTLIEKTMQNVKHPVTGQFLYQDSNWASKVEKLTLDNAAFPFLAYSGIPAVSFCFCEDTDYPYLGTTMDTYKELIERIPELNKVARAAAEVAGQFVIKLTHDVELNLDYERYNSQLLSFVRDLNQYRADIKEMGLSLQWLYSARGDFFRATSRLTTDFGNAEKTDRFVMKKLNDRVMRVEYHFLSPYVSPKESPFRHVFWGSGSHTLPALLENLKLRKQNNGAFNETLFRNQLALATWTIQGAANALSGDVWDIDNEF
Nature of the experiment: Evaluation of molecular interaction between transferrin receptor (hTfR) and peptide using surface plasmon resonance (SPR). It is filed as binding. The settings on record: surface plasmon resonance, binding to hTfR; KD class symbol; read-out: SPR (KD value). In a few lines:
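Recombinant hTfR dimer (0.5 μM) immobilized on Ni-loaded NTA chip via EDC/NHS, ethanolamine-capped. Peptides at 5–100 nM in HEPES pH 8.0 buffer with 150 mM NaCl, 0.05% Tween 20, 0.1% BSA, 1.0% DMSO, flowed by single-cycle kinetics; KD from least-squares fit of sensorgrams.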
(In SPR one partner is held on a chip, and binding of the other changes the refractive index at the surface.)
For the molecule `CC[C@H](C)[C@@H]1NC(=O)[C@H](Cc2ccc(O)cc2)NC(=O)[C@H](Cc2ccc(O)cc2)NC(=O)[C@H](CC(N)=O)NC(=O)[C@H](Cc2c[nH]c3ccccc23)N(C)C(=O)[C@H](C(C)C)NC(=O)[C@H](Cc2ccc(F)cc2)N(C)C(=O)[C@H](C(C)C)NC(=O)[C@H](C)NC(=O)CSC[C@@H](C(=O)NCCOCCOCCOCCOCCC(N)=O)NC(=O)[C@H](Cc2ccc(O)cc2)N(C)C(=O)[C@H](Cc2ccccc2)NC(=O)[C@@H](CCCNC(=N)N)NC(=O)[C@H](CCCNC(=N)N)NC(=O)[C@H]([C@@H](C)CC)NC1=O` [compound 28], the Kd (commonly a measure of binding affinity in units of concentration) lay within 1 to 100 nM.
The value for `CC[C@H](C)[C@@H]1NC(=O)[C@H](Cc2ccc(OC)cc2)NC(=O)[C@H](Cc2ccc(O)cc2)NC(=O)[C@H](CC(N)=O)NC(=O)[C@H](Cc2c[nH]c3ccccc23)N(C)C(=O)[C@H](C(C)C)NC(=O)[C@H](Cc2ccc(F)cc2)N(C)C(=O)[C@H](C(C)C)NC(=O)[C@H](C)NC(=O)CSC[C@@H](C(=O)NCCOCCOCCOCCOCCC(N)=O)NC(=O)[C@H](Cc2ccc(O)cc2)N(C)C(=O)[C@H](Cc2ccccc2)NC(=O)[C@@H](CCCNC(=N)N)NC(=O)[C@H](CCCNC(=N)N)NC(=O)[C@H]([C@@H](C)CC)NC1=O` [compound 29] was 1 to 100 nM; that for `CC[C@H](C)[C@@H]1NC(=O)[C@H](Cc2ccc(OC)cc2)NC(=O)[C@H](Cc2ccc(O)cc2)NC(=O)[C@H](CC(N)=O)NC(=O)[C@H](Cc2c[nH]c3ccccc23)N(C)C(=O)[C@H](C(C)C)NC(=O)[C@H](Cc2ccc(F)cc2)N(C)C(=O)[C@H](C(C)C)NC(=O)[C@H](C)NC(=O)CSC[C@@H](C(=O)NCCOCCOCCOCCOCCC(N)=O)NC(=O)[C@H](Cc2ccc(O)cc2)N(C)C(=O)[C@H](Cc2ccccc2)NC(=O)[C@@H](CCCNC(=N)N)NC(=O)[C@H](CCCNC(=N)N)N(C)C(=O)[C@H]([C@@H](C)CC)NC1=O` [compound 30] was 1 to 100 nM; that for `CC[C@H](C)[C@@H]1NC(=O)[C@H](Cc2ccc(OC)cc2)NC(=O)[C@H](Cc2ccc(O)cc2)NC(=O)[C@H](CC(N)=O)NC(=O)[C@H](Cc2c[nH]c3ccc(Cl)cc23)NC(=O)[C@H](C(C)C)NC(=O)[C@H](Cc2ccccc2)N(C)C(=O)[C@H](C(C)C)NC(=O)[C@H](C)NC(=O)CSC[C@@H](C(=O)NCCOCCOCCOCCOCCC(N)=O)NC(=O)[C@H](Cc2ccc(O)cc2)N(C)C(=O)[C@H](Cc2ccc(O)cc2)NC(=O)[C@H](CCCNC(=N)N)NC(=O)[C@H](CCCNC(=N)N)NC(=O)[C@H]([C@@H](C)CC)NC1=O` [compound 37] was less than 1 nM.
On to `CC[C@H](C)[C@@H]1NC(=O)[C@H](Cc2ccc(OC)cc2)NC(=O)[C@H](Cc2ccc(O)cc2)NC(=O)[C@H](CC(N)=O)NC(=O)[C@H](Cc2c[nH]c3ccccc23)NC(=O)[C@H](C(C)C)NC(=O)[C@H](Cc2cccc(Cl)c2)N(C)C(=O)[C@H](C(C)C)NC(=O)[C@H](C)NC(=O)CSC[C@@H](C(=O)NCCOCCOCCOCCOCCC(N)=O)NC(=O)[C@H](Cc2ccc(O)cc2)N(C)C(=O)[C@H](Cc2ccc(O)cc2)NC(=O)[C@H](CCCNC(=N)N)NC(=O)[C@H](CCCNC(=N)N)NC(=O)[C@H]([C@@H](C)CC)NC1=O` [compound 38], for which the Kd was less than 1 nM.
Turning to `CC[C@H](C)[C@@H]1NC(=O)[C@H](Cc2ccc(OC)cc2)NC(=O)[C@H](Cc2ccc(O)cc2)NC(=O)[C@H](CC(N)=O)NC(=O)[C@H](Cc2cn(CC(=O)O)c3ccccc23)NC(=O)[C@H](C(C)C)NC(=O)[C@H](Cc2cccc(Cl)c2)N(C)C(=O)[C@H](C(C)C)NC(=O)[C@H](C)NC(=O)CSC[C@@H](C(=O)NCC(=O)N[C@H](CCC(=O)O)C(=O)N[C@H](CCC(=O)O)C(=O)N[C@H](CCC(=O)O)C(=O)N[C@H](CO)C(=O)N[C@H](CO)C(=O)N[C@@H](CCCCN=[N+]=[N-])C(N)=O)NC(=O)[C@H](Cc2ccc(O)cc2)N(C)C(=O)[C@H](Cc2ccccc2)NC(=O)[C@H](CCCNC(=N)N)NC(=O)[C@H](CCCNC(=N)N)NC(=O)[C@H](CCC(=O)O)NC1=O` [compound 39], the Kd was less than 1 nM.
On to `CC[C@H](C)[C@@H]1NC(=O)[C@H](Cc2ccc(OCC(=O)O)cc2)NC(=O)[C@H](Cc2ccc(O)cc2)NC(=O)[C@H](CC(N)=O)NC(=O)[C@H](Cc2cn(CC(=O)O)c3ccccc23)NC(=O)[C@H](C(C)C)NC(=O)[C@H](Cc2cccc(Cl)c2)N(C)C(=O)[C@H](C(C)C)NC(=O)[C@H](C)NC(=O)CSC[C@@H](C(=O)NCC(=O)N[C@H](CCC(=O)O)C(=O)N[C@H](CCC(=O)O)C(=O)N[C@H](CCC(=O)O)C(=O)N[C@H](CO)C(=O)N[C@H](CO)C(=O)N[C@@H](CCCCN=[N+]=[N-])C(N)=O)NC(=O)[C@H](Cc2ccc(O)cc2)N(C)C(=O)[C@H](Cc2ccccc2)NC(=O)[C@H](CCCNC(=N)N)NC(=O)[C@H](CCCNC(=N)N)NC(=O)[C@H]([C@@H](C)CC)NC1=O` [compound 40], for which the Kd is less than 1 nM.
`CC[C@H](C)[C@@H]1NC(=O)[C@H](Cc2ccc(OCC(=O)O)cc2)NC(=O)[C@H](Cc2ccc(O)cc2)NC(=O)[C@H](CC(N)=O)NC(=O)[C@H](Cc2c[nH]c3ccccc23)NC(=O)[C@H](C(C)C)NC(=O)[C@H](Cc2ccccc2)N(C)C(=O)[C@H](C(C)C)NC(=O)[C@H](C)NC(=O)CSC[C@@H](C(=O)NCC(=O)N[C@H](CCC(=O)O)C(=O)N[C@H](CCC(=O)O)C(=O)N[C@H](CCC(=O)O)C(=O)N[C@H](CO)C(=O)N[C@H](CO)C(=O)N[C@@H](CCCCN=[N+]=[N-])C(N)=O)NC(=O)[C@H](Cc2ccc(O)cc2)N(C)C(=O)[C@H](Cc2ccc(O)cc2)NC(=O)[C@H](CCCNC(=N)N)NC(=O)[C@H](CCCNC(=N)N)NC(=O)[C@H]([C@@H](C)CC)NC1=O` [compound 41]: the Kd lay in the range of 1 to 100 nM.
Regarding `CC[C@H](C)[C@@H]1NC(=O)[C@H](Cc2ccc(OCC(=O)O)cc2)NC(=O)[C@H](Cc2ccc(O)cc2)NC(=O)[C@H](CC(N)=O)NC(=O)[C@H](Cc2cn(CC(=O)O)c3ccccc23)NC(=O)[C@H](C(C)C)NC(=O)[C@H](Cc2ccccc2)N(C)C(=O)[C@H](C(C)C)NC(=O)[C@H](C)NC(=O)CSC[C@@H](C(=O)NCC(=O)N[C@H](CCC(=O)O)C(=O)N[C@H](CCC(=O)O)C(=O)N[C@H](CCC(=O)O)C(=O)N[C@H](CO)C(=O)N[C@H](CO)C(=O)N[C@@H](CCCCN=[N+]=[N-])C(N)=O)NC(=O)[C@H](Cc2ccc(O)cc2)N(C)C(=O)[C@H](Cc2ccc(O)cc2)NC(=O)[C@H](CCCNC(=N)N)NC(=O)[C@H](CCCNC(=N)N)NC(=O)[C@H]([C@@H](C)CC)NC1=O` [compound 42], the dissociation constant Kd lay within 1 to 100 nM.
With `CC[C@H](C)[C@@H]1NC(=O)[C@H](Cc2ccc(OC)cc2)NC(=O)[C@H](Cc2ccc(O)cc2)NC(=O)[C@H](CC(N)=O)NC(=O)[C@H](Cc2cn(CC(=O)O)c3ccccc23)NC(=O)[C@H](C(C)C)NC(=O)[C@H](Cc2cccc(Cl)c2)N(C)C(=O)[C@H](C(C)C)NC(=O)[C@H](C)NC(=O)CSC[C@@H](C(=O)NCCOCCOCCOCCOCCC(N)=O)NC(=O)[C@H](Cc2ccc(O)cc2)N(C)C(=O)[C@H](Cc2ccccc2)NC(=O)[C@H](CCCNC(=N)N)NC(=O)[C@H](CCCNC(=N)N)NC(=O)[C@H](CCC(=O)O)NC1=O` [compound 43], the Kd was in the range of 1 to 100 nM.
The value for `CC[C@H](C)[C@@H]1NC(=O)[C@H](Cc2ccc(OCC(=O)O)cc2)NC(=O)[C@H](Cc2ccc(O)cc2)NC(=O)[C@H](CC(N)=O)NC(=O)[C@H](Cc2cn(CC(=O)O)c3ccccc23)NC(=O)[C@H](C(C)C)NC(=O)[C@H](Cc2cccc(Cl)c2)N(C)C(=O)[C@H](C(C)C)NC(=O)[C@H](C)NC(=O)CSC[C@@H](C(=O)NCCOCCOCCOCCOCCC(N)=O)NC(=O)[C@H](Cc2ccc(O)cc2)N(C)C(=O)[C@H](Cc2ccccc2)NC(=O)[C@H](CCCNC(=N)N)NC(=O)[C@H](CCCNC(=N)N)NC(=O)[C@H]([C@@H](C)CC)NC1=O` [compound 44] was 1 to 100 nM; that for `CC[C@H](C)[C@@H]1NC(=O)[C@H](Cc2ccc(OCC(=O)O)cc2)NC(=O)[C@H](Cc2ccc(O)cc2)NC(=O)[C@H](CC(N)=O)NC(=O)[C@H](Cc2c[nH]c3ccccc23)NC(=O)[C@H](C(C)C)NC(=O)[C@H](Cc2ccccc2)N(C)C(=O)[C@H](C(C)C)NC(=O)[C@H](C)NC(=O)CSC[C@@H](C(=O)NCCOCCOCCOCCOCCC(N)=O)NC(=O)[C@H](Cc2ccc(O)cc2)N(C)C(=O)[C@H](Cc2ccc(O)cc2)NC(=O)[C@H](CCCNC(=N)N)NC(=O)[C@H](CCCNC(=N)N)NC(=O)[C@H]([C@@H](C)CC)NC1=O` [compound 45] was 1 to 100 nM.
The same measure for `CC[C@H](C)[C@@H]1NC(=O)[C@H](Cc2ccc(OCC(=O)O)cc2)NC(=O)[C@H](Cc2ccc(O)cc2)NC(=O)[C@H](CC(N)=O)NC(=O)[C@H](Cc2cn(CC(=O)O)c3ccccc23)NC(=O)[C@H](C(C)C)NC(=O)[C@H](Cc2ccccc2)N(C)C(=O)[C@H](C(C)C)NC(=O)[C@H](C)NC(=O)CSC[C@@H](C(=O)NCCOCCOCCOCCOCCC(N)=O)NC(=O)[C@H](Cc2ccc(O)cc2)N(C)C(=O)[C@H](Cc2ccc(O)cc2)NC(=O)[C@H](CCCNC(=N)N)NC(=O)[C@H](CCCNC(=N)N)NC(=O)[C@H]([C@@H](C)CC)NC1=O` [compound 46]: 1 to 100 nM; for `CC[C@H](C)[C@@H]1NC(=O)[C@H](Cc2ccc(OCC(=O)O)cc2)NC(=O)[C@H](Cc2ccc(O)cc2)NC(=O)[C@H](CC(N)=O)NC(=O)[C@H](Cc2cn(CC(=O)O)c3ccccc23)NC(=O)[C@H](C(C)C)NC(=O)[C@H](Cc2cccc(Cl)c2)N(C)C(=O)[C@H](C(C)C)NC(=O)[C@H](C)NC(=O)CSC[C@@H](C(=O)NCC(=O)NCCOCCOCCOCCOCCOCCOCCOCCOCCC(=O)N[C@@H](CCCCN=[N+]=[N-])C(N)=O)NC(=O)[C@H](Cc2ccc(O)cc2)N(C)C(=O)[C@H](Cc2ccccc2)NC(=O)[C@H](CCCNC(=N)N)NC(=O)[C@H](CCCNC(=N)N)NC(=O)[C@H]([C@@H](C)CC)NC1=O` [compound 47]: 1 to 100 nM.
